Data from patent publication US5508450A, “Benzopyran derivatives” (Ono Pharmaceutical Co., Ltd., priority 1989, dated 1996).
Where a name gives a salt, the structure may show the parent alone.

System: Lysozyme (dimer formation with fructose)
Test: Inhibitory activity on Maillard reaction: formation of lysozyme dimer (lysozyme + fructose, SDS-PAGE, densitometer)
Assay type: biochemical
Conditions: lysozyme 10 mg/ml, fructose 100 mM, 0.2M sodium phosphate buffer pH 7.4, 37° C., 3 days
Experimental: The inhibitory activity on Maillard reaction of the compounds of the present invention has confirmed by the screening system mentioned below. Lysozyme (10 mg/ml) and fructose (100 mM) were dissolved in 0.2M sodium phosphatic buffer solution (PH 7.4). The solution was incubated at a temperature of 37° C. for 3 days. A given volume of the reaction solution was separated using SDS-PAGE by the electrophoresis. After the electrophoresis, the SDS-PAGE was dyed by 0.2% Coomassie Brilliant Blue R-250 and then the dimer was determined by densitometer. The compounds of the present invention were added before incubation and the inhibitory activity of them against the formation of the dimer was examined in various concentrations and IC50 values were calculated.

| Structure (SMILES) | IC50 |
| --- | --- |
| Cc1c(C)c2c(c(C)c1O)CCC(C)(CCCCOc1ccc(NC(=N)N)cc1C(F)(F)F)O2 (centres unmarked) [10 (a), 2-trifluoromethyl-4-guanidinophenyl 4-(6-hydroxy-2,5,7,8-tetramethyl-3,4-dihydro-2H-benzo[1,2-b]-pyran-2-yl)butyl ether hydrochloride] | 21 µM |
| Cc1c(C)c2c(c(C)c1O)CCC(C)(CCCCSc1ccc(NC(=N)N)cc1)O2 (centres unmarked) [10 (e), 4-guanidinophenyl 4-(6-hydroxy-2,5,7,8-tetramethyl-3,4-dihydro-2H-benzo[1,2-b]pyran-2-yl)butyl thioether hydrochloride] | 36 µM |
| Cc1c(C)c2c(c(C)c1O)CCC(C)(CCCCNC(=O)COc1ccc(NC(=N)N)cc1)O2 (centres unmarked) [22 (a), N-[4-(6-hydroxy-2,5,7,8-tetramethyl-3,4-dihydro-2H-benzo[1,2,-b]pyran-2-yl)butyl]-2-(4-guanidinophenoxy)acetamide hydrochloride] | 500 µM |
| Cc1c(C)c2c(c(C)c1O)CCC(C)(CCCCOc1ccc(CCSc3ccc(NC(=N)N)cc3)cc1)O2 (centres unmarked) [28 (c), 4-guanidinophenyl 2-[4-[4-(6-hydroxy-2,5,7,8-tetramethyl-3,4-dihydro-2H-benzo[1,2-b]-pyran-2-yl)butoxy]phenyl]-ethyl thioether hydrochloride] | 4.2 µM |
| Cc1c(C)c2c(c(C)c1O)CCC(C)(CCCCOc1ccc(NC(=O)/C=C/c3ccc(NC(=N)N)cc3)cc1)O2 (centres unmarked) [Example 9, N-[4-[4-(6-hydroxy-2,5,7,8-tetramethyl-3,4-dihydro-2H-benzo[1,2-b]pyran-2-yl)butoxy]phenyl]-4-guanidinocinnamamide hydrochloride] | 6.2 µM |
| CCOC(=O)c1cc(NC(=N)N)cc(C(=O)NCCC2(C)CCc3c(C)c(O)c(C)c(C)c3O2)c1 (centres unmarked) [Example 14, N-[2-(6-hydroxy-2,5,7,8-tetramethyl-3,4-dihydro-2H-benzo[1,2-b]pyran-2-yl)ethyl]-3-ethoxycarbonyl-5-guanidinobenzamide hydrochloride] | 220 µM |
| CCOC(=O)c1cc(NC(=N)N)ccc1OCCC1(C)CCc2c(C)c(O)c(C)c(C)c2O1 (centres unmarked) [Example 15, 2-ethoxycarbonyl-4-guanidinophenyl 2-(6-hydroxy-2,5,7,8-tetramethyl-3,4-dihydro-2H-benzo[1,2-b]pyran-2-yl)ethyl ether hydrochloride] | 220 µM |
| CCOC(=O)c1cc(NC(=N)N)cc(C(=O)Nc2ccc(OCCC3(C)CCc4c(C)c(O)c(C)c(C)c4O3)cc2)c1 (centres unmarked) [Example 17, N-[4-[2-(6-hydroxy-2,5,7,8-tetramethyl-3,4-dihydro-2H-benzo[1,2-b]pyran-2-yl)ethoxy]phenyl]-3-ethoxycarbonyl-5-guanidinobenzamide hydrochloride] | 13 µM |
| Cc1c(C)c2c(c(C)c1O)CCC(C)(CCOc1ccc(CCCNC(=N)NN)cc1)O2 (centres unmarked) [Example 19, 4-[3-(3-aminoguanidino)propyl]phenyl 2-(6-hydroxy-2,5,7,8-tetramethyl-3,4-dihydro-2H-benzo[1,2-b]pyran-2-yl)ethyl ether hydroiodide] | 56 µM |
| Cc1c(C)c2c(c(C)c1O)CCC(C)(CCOCCNC(=O)/C=C/c1ccc(NC(=N)N)cc1)O2 (centres unmarked) [Example 21, N-[2-[2-(6-hydroxy-2,5,7,8-tetramethyl-3,4-dihydro-2H-benzo[1,2-b]pyran-2-yl)ethoxy]ethyl]-4-guanidinocinnamamide hydrochloride] | 220 µM |

Further lines, results first:

| IC50 | Structure (SMILES) |
| --- | --- |
| 68 µM | Cc1c(C)c2c(c(C)c1O)CCC(C)(CCN(Cc1ccccc1)C(=O)/C=C/c1ccc(NC(=N)N)cc1)O2 (centres unmarked) [24 (a), N-benzyl-N-[2-(6-hydroxy-2,5,7,8-tetramethyl-3,4-dihydro-2H-benzo[1,2-b]pyran-2-yl)ethyl]-4-guanidinocinnamamide hydrochloride] |
| 190 µM | Cc1c(C)c2c(c(C)c1O)CCC(C)(CCSCCOc1ccc(NC(=N)N)cc1)O2 (centres unmarked) [27 (b), 4-guanidinophenyl 2-[2-(6-hydroxy-2,5,7,8-tetramethyl-3,4-dihydro-2H-benzo[1,2-b]-pyran-2-yl)ethylthio]ethyl ether hydrochloride] |
| 5.6 µM | Cc1c(C)c2c(c(C)c1O)CCC(C)(CCOc1ccc(CCCOc3ccc(NC(=N)N)cc3)cc1)O2 (centres unmarked) [27 (f), 4-guanidinophenyl 3-[4-[2-(6-hydroxy-2,5,7,8-tetramethyl-3,4-dihydro-2H-benzo[1,2-b]-pyran-2-yl)ethoxy]phenyl]-propyl ether hydrochloride] |
| 20 µM | Cc1c(C)c2c(c(C)c1O)CCC(C)(CCCCCCOc1ccc(NC(=N)N)cc1)O2 (centres unmarked) [29 (a), 4-guanidinophenyl 6-(6-hydroxy-2,5,7,8-tetramethyl-3,4-dihydro-2H-benzo[1,2-b]pyran-2-yl)-n-hexyl ether hydrochloride] |
| 150 µM | Cc1c(C)c2c(c(C)c1O)CCC(C)(CCOCc1ccc(CNC(=N)NN)cc1)O2 (centres unmarked) [Example 4, 4-(3-aminoguamidinomethyl)benzyl 2-(6-hydroxy-2,5,7,8-tetramethyl-3,4-dihydro-2H-benzo[1,2-b]pyran-2-yl)ethyl ether hydroiodide] |
| 320 µM | Cc1c(C)c2c(c(C)c1O)CCC(C)(CCOc1ccc(NC(=N)N)cc1)O2 (centres unmarked) [Example 5, 4-guanidinophenyl 2-(6-hydroxy-2,5,7,8-tetramethyl-3,4-dihydro-2H-benzo[1,2-b]pyran-2-yl)ethyl ether hydrochloride] |
| 300 µM | Cc1c(C)c2c(c(C)c1O)CCC(C)(CCCCNC(=N)NN)O2 (centres unmarked) [Example 8, 1-amino-3-[4-(6-hydroxy-2,5,7,8-tetramethyl-3,4-dihydro-2H-benzo[1,2-b]pyran-2-yl)butyl]guanidine hydroiodide] |
| 75 µM | Cc1c(C)c2c(c(C)c1O)CCC(C)(CCCCOc1ccc(NC(=N)N)cc1)O2 (centres unmarked) [Example 10, 4-guanidinophenyl 4-(6-hydroxy-2,5,7,8-tetramethyl-3,4-dihydro-2H-benzo[1,2-b]pyran-2-yl)butyl ether hydrochloride] |
| 200 µM | Cc1c(C)c2c(c(C)c1O)CCC(C)(CCCCNC(=O)Nc1cccc(NC(=N)N)c1)O2 (centres unmarked) [Example 12, 1-[4-(6-hydroxy-2,5,7,8-tetramethyl-3,4-dihydro-2H-benzo[1,2-b]pyran-2-yl)butyl]-3-(3-guanidinophenyl)urea hydrochloride] |
| 48 µM | Cc1c(C)c2c(c(C)c1O)CCC(C)(CCCCNC(=O)/C=C/c1ccc(NC(=N)N)cc1)O2 (centres unmarked) [Example 22, N-[4-(6-hydroxy-2,5,7,8-tetramethyl-3,4-dihydro-2H-benzo[1,2-b]pyran-2-yl)butyl]-4-guanidinocinnamamide hydrochloride] |
| 130 µM | Cc1c(C)c2c(c(C)c1O)CCC(C)(CC=CCCCCNC(=N)NN)O2 (centres unmarked) [Example 23, 2-[7-(3-aminoguanidino)hept-2-enyl]-6-hydroxy-2,5,7,8-tetramethyl-3,4-dihydro-2H-benzo[1,2,-b]pyran hydroiodide] |
| 180 µM | Cc1c(C)c2c(c(C)c1O)CCC(C)(CCN(C)C(=O)/C=C/c1ccc(NC(=N)N)cc1)O2 (centres unmarked) [Example 24, N-methyl-N-[2-(6-hydroxy-2,5,7,8-tetramethyl-3,4-dihydro2H-benzo[1,2-b]pyran-2-yl)ethyl]-4-guanidinocinnamamide hydrochloride] |
| 270 µM | Cc1c(C)c2c(c(C)c1O)CCC(C)(CCOCCNC(=N)NN)O2 (centres unmarked) [Example 26, 2-(3-aminoguanidino)ethyl 2-(6-hydroxy-2,5,7,8-tetramethyl-3,4-dihydro-2H-benzo[1,2-b]pyran-2-yl)ethyl ether hydrochloride] |
